Results taken from PMC6753678, “Fueling Open Innovation for Malaria Transmission-Blocking Drugs: Hundreds of Molecules Targeting Early Parasite Mosquito Stages” (Frontiers in Microbiology, 2019).
Read-outs that look alike come from different tables or passages of the source.

Key:
HepG2 cells [1] = assay: HepG2 cytotoxicity assay; settings: for IC50: read-out: HepG2 cytotoxicity assay IC50, dose response confirmation; for Pb ODA (this manuscript) HepG2 cytoxicity: HepG2 cytotoxicity listed with the Pb ODA data set (this manuscript)
Procedure, shortened: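 Cells are plated at 2,500 per well on compound-treated plates in MEM containing 10% fetal bovine serum and 1% NEAA, then incubated 48 h at 37°C.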

[2] = tested on: P. falciparum female gametocytes; set-up: method as in Miguel-Blanco et al 2017; settings: ref Miguel-Blanco et al 2017; read-out: Pf FGAA IC50; cited from earlier work
[3] = tested on: P. falciparum female gametocytes; assay: P. falciparum female gametogenesis assay (Pf FGAA); settings: 1: YES; 0: NO; >10-fold selectivity over cytotox
[4] = tested on: 3D7-strain P. falciparum asexual parasites; assay: P. falciparum asexual growth inhibition assay (Pf GIA); format: cell-based, Plasmodium falciparum; settings: dose response confirmation; read-out: Pf asexual growth inhibition assays IC50
Procedure, shortened: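 0.25% parasitemia, 2% Hct, RPMI/HEPES/hypoxanthine/5% Albumax; compound dose response, 72 h, 37°C, 5% CO2, 5% O2, 90% N2. Freeze-thaw, then LDH assay, A650. % inhibition vs chloroquine (50 μM)/DMSO, mean of 3 independent runs.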

[5] = tested on: P. berghei ookinete development; settings: for % inhibition, Replicate A / % inhibition, Replicate B: primary screen at 1 μM
HepG2 cells [6] = settings: HepG2; ref Miguel-Blanco et al 2017; cited from earlier work
[7] = unified HepG2 cytotoxicity across the three screens
[8] = HepG2 values of the three screens unified
[9] = read-out: Pb ODA IC50, this manuscript
[10] = read-out: Pb Ookinete development assay IC50, dose response confirmation
[11] = unified HepG2 value across the three screens
[12] = read-out: Pb ODA (this manuscript) IC50, P. berghei ookinete development assay, this manuscript

SMILES | Unified cytotox (HepG2 cells [1]; [7]) [µM] | IC50 [2] [µM] | Is compound selective in assay? Pf FGAA active? [3] | IC50 [4] [µM] | IC50 (HepG2 cells [1]) [µM] | % inhibition, Replicate A [5] [%] | % inhibition, Replicate B [5] [%] | IC50 [5, 10] [µM] | other results
O=C(Nc1ccc(-c2ccccc2)c(OCCN2CCNCC2)c1)c1ccc(-c2ccc(Cl)cc2)cc1 [TCMDC-138818] | 4.95 | 1.38 | 0 (0: NO) | – | – | – | – | – | –
c1ccc(C23N=C(Nc4nc5ccccc5[nH]4)NC2(c2ccccc2)NC(Nc2nc4ccccc4[nH]2)=N3)cc1 (stereo not shown) [TCMDC-139082] | 58.90 | 0.14 | 1 (1: YES) | – | – | – | – | – | –
Cc1cc(N)c2cc(NC(=O)c3cc(C(F)(F)F)cc(C(F)(F)F)c3)ccc2n1.Cl [TCMDC-139377] | 2.60 | 0.86 | 0 (0: NO) | – | – | – | – | – | –
Nc1ccc2[nH]cc(C3CCN(CC4CCN(C(=O)/C=C/c5ccc(Cl)c(Cl)c5)CC4)CC3)c2n1 [TCMDC-140061] | 5.89 | 1.77 | 0 (0: NO) | – | – | – | – | – | –
CC(C)(C)c1ccc(CNC(=O)/C=C/c2ccc(CNC3CCNCC3)cc2)cc1 [TCMDC-140773] | 9.47 | 1.92 | 0 (0: NO) | – | – | – | – | – | –
Cl.N=C1C=C(N)C(=O)c2ccccc21 [TCMDC-141992] | 0.52 | 11.9 | 0 (0: NO) | – | – | – | – | – | –
Cc1ccc(Cn2ncc(N3CCCNCC3)c(Cl)c2=O)cc1NC(=O)Nc1ccc(-c2ccccc2)cc1 [TCMDC-141924] | 7.86 | 1.73 | 0 (0: NO) | – | – | – | – | – | –
Oc1ccc2[nH]cc(C3CCN(CCCNCc4ccc(-c5ccccc5)cc4)CC3)c2c1 [TCMDC-139047] | 5.62 | 1.44 | 0 (0: NO) | – | – | – | – | – | –
COc1ccc(-c2ccccc2)cc1NC(=S)NC1CCC(CN2CCC(c3c[nH]c4ccccc34)CC2)CC1 (stereo not shown) [TCMDC-140182] | 5.50 | 1.65 | 0 (0: NO) | – | – | – | – | – | –
Nc1ccc2[nH]cc(C3CCN(CCC4CCN(C(=O)/C=C/c5ccc(Cl)c(Cl)c5)CC4)CC3)c2n1 [TCMDC-140062] | 8.13 | 1.29 | 0 (0: NO) | – | – | – | – | – | –
Nc1nc(N)c2cc(NC(=O)c3ccc(Cl)c(Cl)c3)ccc2n1 [TCMDC-141982] | 2.14 | 1.59 | 0 (0: NO) | – | – | – | – | – | –
O=C(O)C(F)(F)F.O=S(=O)(c1ccccc1)n1ccc2cc(Nc3ncnc4cc(C#C[C@H]5CCCN5)sc34)ccc21 [TCMDC-138913] | 5.50 | 1.17 | 0 (0: NO) | – | – | – | – | – | –
COc1cccc(CCNC(C)Cc2ccc(OCCCCOc3ccccc3)cc2)c1 (stereo not shown) [TCMDC-140020] | 1.46 | 1.51 | 0 (0: NO) | – | – | – | – | – | –
Cl.O=C(NCCCCN1CCC(c2ccc3c(c2O)CCCC3)CC1)c1ccc(NC(=O)c2ccc(Cl)cc2)cc1 [TCMDC-138645] | 3.80 | 1.49 | 0 (0: NO) | – | – | – | – | – | –
Cc1cc(N)c2cc(NC(=O)/C=C/c3ccc([N+](=O)[O-])cc3)ccc2n1 [TCMDC-139335] | 5.37 | 2.69 | 0 (0: NO) | – | – | – | – | – | –
Cl.O=S(=O)(Nc1cc2c(cc1OCCCN1CCCCC1)CCNCC2)c1ccc(-c2ccc(Cl)cc2)cc1 [TCMDC-141753] | 4.37 | 2 | 0 (0: NO) | – | – | – | – | – | –
CC(C)(CN)c1nc(-c2ccc(Cl)c(O)c2)c(-c2ccncc2)[nH]1.Cl [TCMDC-140369] | – | 0.94 | – | 0.194 | 1.66 | 54.47 | 53.78 | 0.514 | HepG2 cytoxicity (Pb ODA, this manuscript) (HepG2 cells [1]): 1.66 µM; Unified cytotox (HepG2 cells [1]; [8]): 1.91 µM; IC50 [5, 9]: 0.51 µM; HepG2 cytoxicity (Pf FGAA screen) (HepG2 cells [6]): 2.16 µM
Cc1[nH]c(C)c(-c2ccc(CCc3ccc(F)cc3F)cc2)c(=O)c1Cl [TCMDC-135462] | – | 13.3 | – | 0.00253 | 100 | 91.00 | 103.90 | 0.011 | Unified cytotox (HepG2 cells [1]; [8]): 100.00 µM; Is compound selective in assay? Pb ODA active? ([5]; 1: YES, 0: NO): 1 (1: YES); IC50 [5, 9]: 0.01 µM; HepG2 cytoxicity (Pf FGAA screen) (HepG2 cells [6]): >100 µM
COc1coc(C(=O)NC2CCN(CC3(c4ccc(Cl)cc4)CCC3)CC2)c1OC [TCMDC-124835] | – | – | – | 0.107 | 52.5 | 73.94 | 84.15 | 0.899 | Unified cytotox (HepG2 cells [1]; [11]): 52.48 µM; Is compound selective in assay? Pb ODA active? ([5]; 1: YES, 0: NO): 1 (1: YES); IC50 [5, 9]: 0.9 µM
COc1cc(Nc2ccc3cc(S(=O)(=O)N4CCCCC4C)ccc3n2)cc(OC)c1OC (stereo not shown) [TCMDC-125163] | – | – | – | 4.26 | 24.6 | 58.55 | 48.73 | 1.06 | Unified cytotox (HepG2 cells [1]; [11]): 24.55 µM; Is compound selective in assay? Pb ODA active? ([5]; 1: YES, 0: NO): 1 (1: YES); IC50 [5, 9]: 1.06 µM
CNC(=O)c1ccccc1Nc1nc(Nc2ccc(CCN3CCN(C)CC3)cc2)ncc1Cl.Cl [TCMDC-133800] | – | – | – | 0.402 | 2.26 | 66.37 | 76.75 | 2.31 | Pb ODA (this manuscript) HepG2 cytoxicity (HepG2 cells [1]): 2.26 µM; Is compound selective in assay? Pb ODA active? [5]: 0 (key: 1: YES; 0: NO); IC50 [5, 12]: 2.31 µM
COc1ccc2nccc(NC(=O)C3CCC(NCc4cnc(SC)c([N+](=O)[O-])c4)CC3)c2n1.Cl (stereo not shown) [TCMDC-131238] | – | – | – | 0.676 | 14.6 | 77.59 | 35.00 | 2.41 | Pb ODA (this manuscript) HepG2 cytoxicity (HepG2 cells [1]): 14.62 µM; Is compound selective in assay? Pb ODA active? [5]: 0 (key: 1: YES; 0: NO); IC50 [5, 12]: 2.41 µM
Cc1ccc(C2(CN3CCC(NC(=O)c4ccn[nH]4)CC3)CCCCC2)cc1 [TCMDC-124839] | – | – | – | 0.138 | 43.1 | 81.24 | 59.00 | 0.968 | Pb ODA (this manuscript) HepG2 cytoxicity (HepG2 cells [1]): 43.15 µM; Is compound selective in assay? Pb ODA active? [5]: 1 (key: 1: YES; 0: NO); IC50 [5, 12]: 0.97 µM
Cc1[nH]c(C)c(-c2ccc(-c3cccc(C(F)(F)F)c3)nc2)c(=O)c1Br [TCMDC-135911] | – | – | – | 0.045 | 100 | 105.47 | 112.19 | 0.4 | Unified cytotox (HepG2 cells [1]; [8]): 100.00 µM; Is compound selective in assay? Pb ODA active? ([5]; 1: YES, 0: NO): 1 (1: YES)
COc1cccc(C=Cc2nc(=O)c3ccccc3o2)c1OC [TCMDC-124577] | – | – | – | 0.146 | 100 | 107.06 | 83.20 | 0.049 | Pb ODA (this manuscript) HepG2 cytoxicity (HepG2 cells [1]): 100.00 µM; Is compound selective in assay? Pb ODA active? [5]: 1 (key: 1: YES; 0: NO); IC50 [5, 12]: 0.05 µM
O=C(c1cc(-c2cccs2)[nH]n1)N1CCN(S(=O)(=O)c2ccc(Cl)cc2)CC1 [TCMDC-124702] | – | – | – | 0.027 | 42.2 | 58.15 | 68.92 | 4.34 | Pb ODA (this manuscript) HepG2 cytoxicity (HepG2 cells [1]): 42.17 µM; Is compound selective in assay? Pb ODA active? [5]: 0 (key: 1: YES; 0: NO); IC50 [5, 12]: 4.34 µM
O=C(NC(=O)c1ccccc1O)c1ccccc1O [TCMDC-125868] | – | – | – | 2.03 | 100 | 63.28 | 34.36 | 0.46 | Unified cytotox (HepG2 cells [1]; [11]): 100.00 µM; Is compound selective in assay? Pb ODA active? ([5]; 1: YES, 0: NO): 1 (1: YES)
CC[C@H]1CN2CCc3cc(OC)c(OC)cc3[C@@H]2C[C@@H]1C[C@H]1NCCc2c1cc(OC)c(O)c2Cl [TCMDC-131802] | – | – | – | 0.156 | 4.52 | 61.67 | 93.54 | 0.268 | Pb ODA (this manuscript) HepG2 cytoxicity (HepG2 cells [1]): 4.52 µM; Is compound selective in assay? Pb ODA active? [5]: 1 (key: 1: YES; 0: NO); IC50 [5, 12]: 0.27 µM
Cc1nc(C)c(-c2ccc(Cl)cc2)c(O)c1I [TCMDC-137424] | – | – | – | 0.239 | 100 | 40.29 | 60.84 | 1.84 | Pb ODA (this manuscript) HepG2 cytoxicity (HepG2 cells [1]): 100.00 µM; Is compound selective in assay? Pb ODA active? [5]: 1 (key: 1: YES; 0: NO); IC50 [5, 12]: 1.84 µM
COc1ccc2nccc([C@@H](O)CN3CCC(NC(=O)c4cc5ccccc5[nH]4)CC3)c2c1.CS(=O)(=O)O [TCMDC-140780] | – | – | – | 0.94 | 50.7 | 48.77 | 68.59 | 0.239 | HepG2 cytoxicity (Pb ODA, this manuscript) (HepG2 cells [1]): 50.70 µM; Unified cytotox (HepG2 cells [1]; [8]): 50.70 µM; Is compound selective in assay? Pb ODA active? ([5]; 1: YES, 0: NO): 1 (1: YES); IC50 [5, 9]: 0.24 µM
